In PubChem BioAssay AID330 (DTP/NCI, 2004):
Values joined by “and” are separate entries in the source; they are usually repeats but may differ in a detail not shown here. Identical values can stand only once. Inconclusive results and toxic doses are left out. How the source made its calls: active means survival T/C of 150% or more; inactive means T/C below 125% in these data.

System: P388 leukemia ip, CD2F1 mice, survival T/C
Test: NCI In Vivo Anticancer Drug Screen. Data for tumor model P388 Leukemia (intraperitoneal) in CD2F1 (CDF1) mice
Details: endpoint: median survival time, higher = longer survival
Outline: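 Mice carrying the transplanted tumor received test compound or vehicle. Survival was recorded in each group, and the value is the treated-group measurement divided by that of the vehicle-treated control group.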

[1] = dose: 50.0 mg/kg/injection, schedule: Q01DX005 (ip), vehicle: saline with Tween-80
[2] = dose: 100.0 mg/kg/injection, schedule: Q01DX005 (ip), vehicle: saline with Tween-80
[3] = dose: 200.0 mg/kg/injection, schedule: Q01DX005 (ip), vehicle: saline with Tween-80
[4] = dose: 100.0 mg/kg/injection, schedule: Q01DX009 (ip), vehicle: saline with Tween-80
[5] = dose: 50.0 mg/kg/injection, schedule: Q01DX009 (ip), vehicle: Klucel (hydroxypropylcellulose) (HPC)
[6] = dose: 100.0 mg/kg/injection, schedule: Q01DX009 (ip), vehicle: Klucel (hydroxypropylcellulose) (HPC)
[7] = dose: 200.0 mg/kg/injection, schedule: Q01DX009 (ip), vehicle: Klucel (hydroxypropylcellulose) (HPC)
[8] = dose: 50.0 mg/kg/injection, schedule: Q01DX009 (ip), vehicle: saline with Tween-80
[9] = dose: 200.0 mg/kg/injection, schedule: Q01DX009 (ip), vehicle: saline with Tween-80
[10] = dose: 50.0 mg/kg/injection, schedule: Q01DX005 (ip), vehicle: Klucel (hydroxypropylcellulose) (HPC)
[11] = dose: 60.0 mg/kg/injection, schedule: Q01DX005 (ip), vehicle: saline with Tween-80
[12] = dose: 120.0 mg/kg/injection, schedule: Q01DX005 (ip), vehicle: saline with Tween-80
[13] = dose: 240.0 mg/kg/injection, schedule: Q01DX005 (ip), vehicle: saline with Tween-80

Measured: T/C

CC(C1CC/C(=N/NC(N)=O)C1)[N+](=O)[O-] (configuration not stated)
inactive: dose: 12.5 mg/kg/injection, schedule: Q01DX009 (ip), vehicle: distilled water + Tween-80 100 % of control | dose: 25.0 mg/kg/injection, schedule: Q01DX009 (ip), vehicle: distilled water + Tween-80 91 % of control | dose: 50.0 mg/kg/injection, schedule: Q01DX009 (ip), vehicle: distilled water + Tween-80 90 % of control | dose: 100.0 mg/kg/injection, schedule: Q01DX009 (ip), vehicle: distilled water + Tween-80 100 % of control | dose: 200.0 mg/kg/injection, schedule: Q01DX009 (ip), vehicle: distilled water + Tween-80 92 % of control

CC(/C=C/C(=O)NO)=C\C(C)C(=O)c1ccc(N(C)C)cc1 (configuration not stated)
active: dose: 8.75 mg/kg/injection, schedule: Q01DX009 (ip), vehicle: saline with Tween-80 152 % of control
inactive: dose: 2.19 mg/kg/injection, schedule: Q01DX009 (ip), vehicle: Klucel (hydroxypropylcellulose) (HPC) 107 % of control | dose: 4.38 mg/kg/injection, schedule: Q01DX009 (ip), vehicle: Klucel (hydroxypropylcellulose) (HPC) 114 % of control | dose: 8.75 mg/kg/injection, schedule: Q01DX009 (ip), vehicle: Klucel (hydroxypropylcellulose) (HPC) 122 % of control and 96 % of control | dose: 17.5 mg/kg/injection, schedule: Q01DX009 (ip), vehicle: Klucel (hydroxypropylcellulose) (HPC) 91 % of control | dose: 17.5 mg/kg/injection, schedule: Q01DX009 (ip), vehicle: saline with Tween-80 90 % of control

COc1ccc(-c2cc(C(=O)Nc3cc(Cl)cc(Cl)c3)c3ccccc3n2)cc1
inactive: [1] 91 % of control | [2] 93 % of control | [3] 91 % of control

O=S(=O)(CCl)OCCCl
inactive: dose: 25.0 mg/kg/injection, schedule: Q01DX009 (ip), vehicle: saline with Tween-80 120 % of control
active: dose: 75.0 mg/kg/injection, schedule: Q01DX009 (ip), vehicle: saline with Tween-80 170 % of control | [4] 218 % of control

NC(=S)N/N=C/C1=C(Cl)c2ccccc2C1
inactive: dose: 6.25 mg/kg/injection, schedule: Q01DX005 (ip), vehicle: saline with Tween-80 109 % of control | dose: 12.5 mg/kg/injection, schedule: Q01DX005 (ip), vehicle: saline with Tween-80 119 % of control

CN(C)c1ccc(N=Nc2cc3c4ccccc4ccc3c3ccccc23)cc1
inactive: [5] 109 % of control | [6] 114 % of control | [7] 117 % of control

CCn1c2nc(=O)n(C)c(=O)c-2cc2ccccc21
inactive: [8] 111 % of control | [4] 111 % of control | [9] 116 % of control

O=C(C=C(C(F)(F)Cl)C(F)(F)Cl)c1cccs1
inactive: dose: 2.5 mg/kg/injection, schedule: Q04DX003 (ip), vehicle: saline 95 % of control | dose: 5.0 mg/kg/injection, schedule: Q04DX003 (ip), vehicle: saline 100 % of control | dose: 10.0 mg/kg/injection, schedule: Q04DX003 (ip), vehicle: saline 100 % of control

CN(C(=[Se])[Se]C(=[Se])N(C)C1CCCCC1)C1CCCCC1
inactive: dose: 15.0 mg/kg/injection, schedule: Q01DX005 (ip), vehicle: Klucel (hydroxypropylcellulose) (HPC) 95 % of control | dose: 30.0 mg/kg/injection, schedule: Q01DX005 (ip), vehicle: Klucel (hydroxypropylcellulose) (HPC) 96 % of control | dose: 60.0 mg/kg/injection, schedule: Q01DX005 (ip), vehicle: Klucel (hydroxypropylcellulose) (HPC) 100 % of control and 93 % of control | dose: 120.0 mg/kg/injection, schedule: Q01DX005 (ip), vehicle: Klucel (hydroxypropylcellulose) (HPC) 99 % of control

Oc1cc(Cl)c(O)c(-c2ccccc2)c1Cl
inactive: [1] 102 % of control | [2] 102 % of control | [3] 90 % of control

CCOC(=O)c1ccc(NC(C)=NC(C)(C)C)cc1
inactive: [5] 93 % of control | [6] 91 % of control | [7] 102 % of control

COc1ccc2c(=O)cc(-c3ccc4ccccc4n3)oc2c1OC
inactive: [10] 98 % of control | dose: 100.0 mg/kg/injection, schedule: Q01DX005 (ip), vehicle: Klucel (hydroxypropylcellulose) (HPC) 95 % of control | dose: 200.0 mg/kg/injection, schedule: Q01DX005 (ip), vehicle: Klucel (hydroxypropylcellulose) (HPC) 90 % of control

Cc1oc(-c2cccc(F)c2)nc1C(N)=O
inactive: [5] 102 % of control | [6] 102 % of control | [7] 100 % of control

CC(S)C(N)C(=O)O (configuration not stated)
inactive: dose: 50.0 mg/kg/injection, schedule: Q01DX009 (ip), vehicle: saline 100 % of control | dose: 100.0 mg/kg/injection, schedule: Q01DX009 (ip), vehicle: saline 95 % of control | dose: 100.0 mg/kg/injection, schedule: Q04DX002 (ip), vehicle: saline with Tween-80 105 % of control and 94 % of control | dose: 200.0 mg/kg/injection, schedule: Q01DX009 (ip), vehicle: saline 97 % of control | dose: 200.0 mg/kg/injection, schedule: Q04DX002 (ip), vehicle: saline with Tween-80 114 % of control and 90 % of control | dose: 400.0 mg/kg/injection, schedule: Q04DX002 (ip), vehicle: saline with Tween-80 114 % of control and 89 % of control

NCCCn1ccc2c3ccccc3nc-2c1
inactive: dose: 12.5 mg/kg/injection, schedule: Q01DX009 (ip), vehicle: water 105 % of control | dose: 25.0 mg/kg/injection, schedule: Q01DX009 (ip), vehicle: water 90 % of control | dose: 50.0 mg/kg/injection, schedule: Q01DX009 (ip), vehicle: water 104 % of control | dose: 100.0 mg/kg/injection, schedule: Q01DX009 (ip), vehicle: water 105 % of control

CCOC(=O)c1c(=O)[nH]c(=O)n2c1[nH]c1ccccc12
inactive: [11] 93 % of control | [12] 91 % of control | [13] 90 % of control

C[C@H](N)C(=O)N[C@@H]1[C@H]2C(=C(O)C[C@@H](O)[C@@H]2O)C(=O)O[C@@H]1C
inactive: dose: 150.0 mg/kg/injection, schedule: Q01DX005 (ip), vehicle: saline 115 % of control
active: dose: 600.0 mg/kg/injection, schedule: Q01DX005 (ip), vehicle: suspension in saline 153 % of control

Cc1cc2[n-]c1/C=c1\[n-]/c(c(CCC(=O)O)c1C)=C\c1[n-]c(c(C)c1CCC(=O)O)/C=c1/cc(C)/c([n-]1)=C/2.[Co]
inactive: dose: 12.5 mg/kg/injection, schedule: Q01DX005 (ip), vehicle: Klucel (hydroxypropylcellulose) (HPC) 98 % of control | dose: 25.0 mg/kg/injection, schedule: Q01DX005 (ip), vehicle: Klucel (hydroxypropylcellulose) (HPC) 101 % of control and 97 % of control | [10] 106 % of control

CC[Si](/C=C(/C)C(C)(C)C)(CC)CC
inactive: [8] 94 % of control | [4] 96 % of control | [9] 113 % of control

COc1cc(Br)cc(C(=O)O)c1OC
inactive: dose: 25.0 mg/kg/injection, schedule: Q01DX009 (ip), vehicle: other 101 % of control | dose: 50.0 mg/kg/injection, schedule: Q01DX009 (ip), vehicle: other 106 % of control | [8] 93 % of control | dose: 100.0 mg/kg/injection, schedule: Q01DX009 (ip), vehicle: other 102 % of control | [4] 93 % of control | [9] 100 % of control | dose: 400.0 mg/kg/injection, schedule: Q01DX009 (ip), vehicle: saline with Tween-80 102 % of control

BrN=C1C=CC(=NBr)C=C1
inactive: [1] 100 % of control (2×) and 106 % of control | [2] 101 % of control and 106 % of control and 91 % of control | [3] 101 % of control and 106 % of control and 120 % of control | dose: 400.0 mg/kg/injection, schedule: Q01DX005 (ip), vehicle: saline with Tween-80 89 % of control and 90 % of control

Cc1ccc(NC(=O)C(Cl)(Cl)Cl)cc1[N+](=O)[O-]
inactive: dose: 100.0 mg/kg/injection, schedule: Q04DX003 (ip), vehicle: saline with Tween-80 104 % of control | dose: 200.0 mg/kg/injection, schedule: Q04DX003 (ip), vehicle: saline with Tween-80 100 % of control | dose: 400.0 mg/kg/injection, schedule: Q04DX003 (ip), vehicle: saline with Tween-80 100 % of control

CCOC(=O)C1=C(c2ccco2)NN=C(c2ccccc2)C1
inactive: [1] 101 % of control | [2] 103 % of control | [3] 94 % of control

C=C1C[C@H](O)[C@H]2C(C[Se]c3ccccc3)C(=O)O[C@@H]2[C@H]2[C@H](C)C(O)C[C@@H]12 (some centres not stated)
inactive: [11] 91 % of control | [12] 95 % of control | [13] 98 % of control

O=C(c1ccccc1)c1cnc2ccccn12
inactive: dose: 100.0 mg/kg/injection, schedule: Q04DX003 (ip), vehicle: Klucel (hydroxypropylcellulose) (HPC) 100 % of control | dose: 200.0 mg/kg/injection, schedule: Q04DX003 (ip), vehicle: Klucel (hydroxypropylcellulose) (HPC) 100 % of control
